Data taken from patent publication US6737383B1, “Herbicidal oxadiazolidines” (priority 1999, dated 2004).

Experiments:
[1] = system: blackgrass; assay: Test B pre/postemergence blackgrass; type: in vivo, Alopecurus myosuroides
Outline: (§1)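 Herbicidal effect was estimated by eye on a ten-point control scale after plants spent twelve to sixteen days in a greenhouse following soil or foliar treatment. Foliar sprays targeted plants at one to four leaves; all doses were formulated in a non-phytotoxic solvent with surfactant.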

[2] = system: surinam grass; assay: Test B pre/postemergence surinam grass; type: in vivo, Brachiaria decumbens
Outline: as §1

[3] = system: cocklebur; assay: Test B pre/postemergence cocklebur; type: in vivo, Xanthium strumarium
Outline: as §1

[4] = system: corn; assay: Test B pre/postemergence corn; type: in vivo, Zea mays
Outline: as §1

[5] = system: crabgrass; assay: Test B pre/postemergence crabgrass; type: in vivo, Digitaria sanguinalis
Outline: as §1

[6] = system: giant foxtail; assay: Test B pre/postemergence giant foxtail; type: in vivo, Setaria faberii
Outline: as §1

[7] = system: morningglory; assay: Test B pre/postemergence morningglory; type: in vivo, Ipomoea hederacea
Outline: as §1

[8] = system: pigweed; assay: Test B pre/postemergence pigweed; type: in vivo, Amaranthus retroflexus
Outline: as §1

[9] = system: rape; assay: Test B pre/postemergence rape; type: in vivo, Brassica napus
Outline: as §1

[10] = system: soybean; assay: Test B pre/postemergence soybean; type: in vivo, Glycine max
Outline: as §1

[11] = system: sugar beet; assay: Test B pre/postemergence sugar beet; type: in vivo, Beta vulgaris
Outline: as §1

[12] = system: velvetleaf; assay: Test B pre/postemergence velvetleaf; type: in vivo, Abutilon theophrasti
Outline: as §1

[13] = system: wheat; assay: Test B pre/postemergence wheat; type: in vivo, Triticum aestivum
Outline: as §1

[14] = system: wild oat; assay: Test B pre/postemergence wild oat; type: in vivo, Avena fatua
Outline: as §1

[15] = system: purple nutsedge; assay: Test B pre/postemergence purple nutsedge; type: in vivo, Cyperus rotundus
Outline: as §1

[16] = system: rice; assay: Test B flood test rice; type: in vivo, Oryza sativa
Outline: (§2)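 Flood test on plants grown to the 2-leaf stage; treated plants kept in greenhouse twelve to sixteen days, then visually rated against controls on a 0 (no effect) to 10 (complete control) scale.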

[17] = system: smallflower flatsedge; assay: Test B flood test smallflower flatsedge; type: in vivo, Cyperus difformis
Outline: as §2

[18] = system: duck salad; assay: Test B flood test duck salad; type: in vivo, Heteranthera limosa
Outline: as §2

[19] = system: bamyardgrass; assay: Test B flood test barnyardgrass; type: in vivo, Echinochloa crus-galli
Outline: as §2

[20] = Postemergence, Rate 125 g/ha, scale 0 to 10, 0 is no effect, 10 is complete control
[21] = Postemergence, Rate 250 g/ha, scale 0 to 10, 0 is no effect, 10 is complete control
[22] = Postemergence, Rate 500 g/ha, scale of 0 to 10 where 0 is no effect and 10 is complete control
[23] = Preemergence, Rate 62 g/ha, scale 0 to 10 (0 no effect, 10 complete control)
[24] = Preemergence, Rate 125 g/ha, scale of 0 to 10 where 0 is no effect and 10 is complete control
[25] = Preemergence, Rate 250 g/ha, scale of 0 to 10 where 0 is no effect and 10 is complete control
[26] = Preemergence, Rate 500 g/ha, scale 0 to 10, 0 is no effect, 10 is complete control
[27] = Rate 62 g/ha, Postemergence, scale of 0 to 10 where 0 is no effect and 10 is complete control
[28] = Preemergence, Rate 250 g/ha, scale 0 to 10, 0 is no effect, 10 is complete control
[29] = Rate 62 g/ha, flood test species, Pre-emergence, visual evaluation after twelve to sixteen days
[30] = Rate 125 g/ha, under heading Pre-emergence, flood test species, visual evaluation after twelve to sixteen days
[31] = Rate 250 g/ha, Pre-emergence, flood-test species, scale 0 to 10, 0 is no effect, 10 is complete control
[32] = Rate 500 g/ha, Pre-emergence, flood test species, scale 0 to 10 (0 no effect, 10 complete control)

Cc1nc(Cl)sc1C(C)n1c(=O)on(C(=O)N(c2ccc(F)cc2F)C(C)C)c1=O (stereo not shown) [Compound 405]
Plant response rating, Blackgrass [1, 20]: 0 | Plant response rating, Blackgrass [1, 21]: 0 | Blackgrass plant response rating [1, 22]: 5 | Plant response rating, Blackgrass [1, 23]: 0 | Plant response rating, Blackgrass [1, 24]: 0 | Blackgrass plant response rating [1, 25]: 0 | Blackgrass plant response rating [1, 26]: 0 | Blackgrass plant response rating [1, 27]: 0 | Plant response rating, B. signalgrass [2, 20]: 0 | Plant response rating, B. signalgrass [2, 21]: 0 | B. signalgrass plant response rating [2, 22]: 0 | Plant response rating, B. signalgrass [2, 23]: 0 | Plant response rating, B. signalgrass [2, 24]: 0 | B. signalgrass plant response rating [2, 25]: 0 | B. signalgrass plant response rating ([2]; Preemergence, Rate 500 g/ha, scale of 0 to 10 where 0 is no effect and 10 is complete control): 0 | B. signalgrass plant response rating [2, 27]: 0 | Plant response rating, Cocklebur [3, 20]: 0 | Plant response rating, Cocklebur [3, 21]: 0 | Cocklebur plant response rating [3, 22]: 0 | Plant response rating, Cocklebur [3, 23]: 0 | Plant response rating, Cocklebur [3, 24]: 0 | Cocklebur plant response rating [3, 28]: 0 | Cocklebur plant response rating [3, 26]: 0 | Cocklebur plant response rating [3, 27]: 0 | Plant response rating, Corn [4, 20]: 0 | Plant response rating, Corn [4, 21]: 0 | Corn plant response rating [4, 22]: 0 | Plant response rating, Corn [4, 23]: 0 | Plant response rating, Corn [4, 24]: 0 | Corn plant response rating [4, 28]: 0 | Corn plant response rating [4, 27]: 0 | Plant response rating, Crabgrass [5, 20]: 0 | Plant response rating, Crabgrass [5, 21]: 0 | Crabgrass plant response rating [5, 22]: 0 | Plant response rating, Crabgrass [5, 23]: 0 | Plant response rating, Crabgrass [5, 24]: 1 | Crabgrass plant response rating [5, 28]: 8 | Crabgrass plant response rating [5, 26]: 10 | Crabgrass plant response rating [5, 27]: 0 | Plant response rating, Giant foxtail [6, 20]: 0 | Plant response rating, Giant foxtail [6, 21]: 0 | Giant foxtail plant response rating [6, 22]: 6 | Plant response rating, Giant foxtail [6, 23]: 0 | Plant response rating, Giant foxtail [6, 24]: 8 | Giant foxtail plant response rating [6, 28]: 9 | Giant foxtail plant response rating [6, 26]: 10 | Giant foxtail plant response rating [6, 27]: 0 | Plant response rating, Morningglory [7, 21]: 5 | Morningglory plant response rating [7, 22]: 5 | Plant response rating, Morningglory [7, 23]: 0 | Plant response rating, Morningglory [7, 24]: 0 | Morningglory plant response rating [7, 28]: 0 | Morningglory plant response rating [7, 26]: 0 | Plant response rating, Redroot pigweed [8, 21]: 0 | Redroot pigweed plant response rating [8, 22]: 0 | Plant response rating, Redroot pigweed [8, 23]: 0 | Plant response rating, Redroot pigweed [8, 24]: 0 | Redroot pigweed plant response rating [8, 28]: 0 | Redroot pigweed plant response rating [8, 26]: 0 | Plant response rating, Rape [9, 21]: 0 | Rape plant response rating [9, 22]: 2 | Plant response rating, Rape [9, 23]: 0 | Plant response rating, Rape [9, 24]: 0 | Rape plant response rating [9, 28]: 0 | Rape plant response rating [9, 26]: 0 | Plant response rating, Soybean [10, 21]: 2 | Soybean plant response rating [10, 22]: 3 | Plant response rating, Soybean [10, 23]: 0 | Plant response rating, Soybean [10, 24]: 0 | Soybean plant response rating [10, 28]: 0 | Soybean plant response rating [10, 26]: 3 | Plant response rating, Sugarbeets [11, 21]: 0 | Sugarbeets plant response rating [11, 22]: 0 | Plant response rating, Sugarbeets [11, 23]: 0 | Plant response rating, Sugarbeets [11, 24]: 0 | Sugarbeets plant response rating [11, 28]: 0 | Sugarbeets plant response rating [11, 26]: 0 | Plant response rating, Velvetleaf [12, 21]: 0 | Velvetleaf plant response rating [12, 22]: 0 | Plant response rating, Velvetleaf [12, 23]: 0 | Plant response rating, Velvetleaf [12, 24]: 0 | Velvetleaf plant response rating [12, 28]: 0 | Velvetleaf plant response rating [12, 26]: 0 | Wheat plant response rating [13, 22]: 0 | Plant response rating, Wheat [13, 23]: 0 | Plant response rating, Wheat [13, 24]: 0 | Wheat plant response rating [13, 28]: 0 | Wheat plant response rating [13, 26]: 0 | Wild oats plant response rating [14, 22]: 0 | Plant response rating, Wild oats [14, 23]: 0 | Plant response rating, Wild oats [14, 24]: 0 | Wild oats plant response rating [14, 28]: 0 | Wild oats plant response rating [14, 26]: 0 | Plant response rating, Nutsedge [15, 21]: 0 | Nutsedge plant response rating [15, 22]: 0 | Plant response rating, Nutsedge [15, 23]: 0 | Plant response rating, Nutsedge [15, 24]: 0 | Nutsedge plant response rating [15, 28]: 0 | Nutsedge plant response rating [15, 26]: 0 | Plant response rating, Rice (0 to 10 scale, 0 is no effect, 10 is complete control) [16, 29]: 0 | Rice plant response rating (0 to 10 scale, 0 is no effect, 10 is complete control) [16, 30]: 0 | Rice plant response rating [16, 31]: 0 | Rice plant response rating [16, 32]: 0 | Plant response rating, S. Flatsedge (0 to 10 scale, 0 is no effect, 10 is complete control) [17, 29]: 0 | S. Flatsedge plant response rating (0 to 10 scale, 0 is no effect, 10 is complete control) [17, 30]: 0 | S. Flatsedge plant response rating [17, 31]: 0 | S. Flatsedge plant response rating [17, 32]: 0 | Plant response rating, Ducksalad (0 to 10 scale, 0 is no effect, 10 is complete control) [18, 29]: 0 | Ducksalad plant response rating (0 to 10 scale, 0 is no effect, 10 is complete control) [18, 30]: 0 | Ducksalad plant response rating [18, 31]: 0 | Ducksalad plant response rating [18, 32]: 0 | Plant response rating, Barnyardgrass (0 to 10 scale, 0 is no effect, 10 is complete control) [19, 29]: 0 | Barnyardgrass plant response rating (0 to 10 scale, 0 is no effect, 10 is complete control) [19, 30]: 0 | Barnyardgrass plant response rating [19, 31]: 0 | Barnyardgrass plant response rating [19, 32]: 0
